Data taken from patent publication US8758769B2, “Composition for preventing and treating acetaminophen inducing liver injury comprising the protein extract from Porphyra yezoensis” (Pukyong National University Industry Academic Cooperation …, priority 2006, dated 2014).

Assays:
HepG2 liver cell = assay: Proliferation of HepG2 liver cell by AAP treatment (MTS/MTT); type: cell-based; conditions: AAP in serum free medium, 24 hours and 48 hours, FIG. 7
Experimental: The used HepG2 liver cell is distributed by ATCC (American Type Culture Center).
Antibiotics (penicillin/streptomycin) of 100 units/ml is added to an MEM medium and then filtrated by a filter of 0.22[…]. Before the culture, FBS (Fetal bovine serum) is added, thereby obtaining the final concentration of 10%. The cell is cultured in a 5% CO2 incubator at 37° C. During the culture of the cell, the medium is replaced by twice a week and when the medium is a confluent state, the medium is washed by PBS (Phosphate Buffered Saline). Thereafter, the attached cells are separated by 0.05% of trypsin solution and centrifuged, then each cell is mixed, dispersed properly by using a pipet and divided identically.
To examine the cell proliferation and the toxicity, the HepG2 liver cell is controlled by concentration of 5×10^4 cells/ml, and divided into 96-well microplates (palcon, USA) by 100[…] per a well and cultured. After 24 hours, a medium is replaced with a serum free medium and then cultured again for 24 hours. A protein sample is dissolved into the serum free medium, then diluted until 0.01% concentration. The dilution solution by each concentration is added to each cell line and cultured for 24 hours at the 5% CO2 incubator at 37° C. […] Thereafter, the absorbance at 490 nm is measured by using an automatic ELIZA reader and the cell survival ratio is calculated by a calculation formula 1. […]

liver tissue of a rat = assay: Liver appearance and H&E histology of liver tissue, AAP induced liver injury; type: in vivo; conditions: rats, AAP 700 mg/kg abdominal administration, 24 hours
Experimental: For this, the liver tissue of the white rat bred by each experiment group is extracted and lightly washed by the saline solution so that blood is removed. A portion of the liver tissue is cut and then the cut liver tissue is cut into thickness of 0.5 cm and fixed into Bouin fixation solution. Thereafter, the cut liver tissue is inserted into a tissue capsule within 24 hours by using the same fixation solution and fixed again. Thereafter, the fixed tissue is washed, inserted into an autotechnicon, dehydrated in the sequencing concentration alcohol and processed transparently by xylene. At an embedding center, paraffin is infiltrated into the tissue capsule and an embedding process is performed, so that a block is manufactured. The block is cut thinly with thickness of 5[…] by a rotary microtome and the cut blocks are left in a floating thermostat in order to be spreaded fully and then attached onto a clean slide glass. Thereafter, to firmly adhere the slide glass and the tissue cut pieces, the slide glass with the tissue cut pieces is left at a slide warmer maintaining temperature of about 60° C. Finally, to basically observe the arrangement of cell and the morphological change, all tissue pieces are dyed by Hematoxylin & Eosin capable of separately seeing the nucleus and cytoplasm and thereafter, observed by an optical microscopy.

caspase-3 = assay: Caspase-3 activity in the liver tissue (DEVD-pNA substrate); type: in vivo, rat; conditions: rats, AAP 700 mg/kg; control group 100%
Experimental: Accordingly, to confirm the cell apoptosis when generating the liver injury by AAP, the activity of the caspase-3 is measured. For this, the liver tissue is homogenized by the lysis buffer (25 mM HEPES, pH 7.5, 5 mM EDTA, 2 mM DTT, 0.1% CHAPS) containing the protease inhibitor and centrifuged by 14,000×g at 4° C. The protein concentration of the obtained upper solution is measured by a BCA protein assay kit. Thereafter, 80[…] of protein is inserted into the 96-well, then the DEVD-pNA substrate is inserted, thereafter, a reaction is progressed for 4 hours at 37° C. The absorbance is measured at 405 nm.

[1] = test system: DNA within the liver tissue; assay: DNA fragmentation in the liver tissue; type: in vivo, rat; conditions: rats, AAP 700 mg/kg
Source text: To confirm the modes of the cell apoptosis, DNA within the liver tissue is extracted and then the degree of fragmentation is examined.

GOT and GPT in the serum = assay: GOT and GPT in serum; type: in vivo, rat; conditions: rats, AAP 700 mg/kg, 24 hours
Experimental: GOT and GPT in the serum as liver function indicators are enzymes which reflect the change and necrosis of the liver cell and spilled in great quantities in the blood when damaging the liver tissue. GOT/GPT in the serum are measured by using a kit for measuring GOT (Glutamic oxaloacetic transaminase) and GPT (Glutamic pyruvic transaminase) activity measuring serum transaminase (Shinyang Chemistry, Republic of Korea) manufactured by Retiman-Frankle's manner through a spectrum photometer (Ultrospec 2001 pro. amersham phamasia biotech, United Kingdom) at 505 nm and then the result is shown in FIG. 4.

[2] = test system: GSH (Glutathione) in the liver tissue; assay: Glutathione content in the liver tissue; type: in vivo, rat; conditions: rats, AAP 700 mg/kg; compared with the control group of 100%
Experimental: Accordingly, the GSH activity in the liver tissue is measured. For this, the liver tissue is homogenized by 5% of sulfosalicylic acid, then frozen by the liquid nitrogen and thereafter a thaw process is executed repeatedly by twice in a cistern of 37° C. Thereafter, the defrosted liver tissue is left for 5 minutes At 4° C. and centrifuged at 4° C., 1,000×g, for 10 minutes, so that the upper solution is obtained. The upper solution and the standard solution within the GSH assay kit are divided into a 96-well plate, respectively, thereafter a working mixture is added to the 96-well plate, and a reaction is progressed at the room temperature for 5 minutes. After 5 minutes, NADPH is inserted into the above plate and mixed through a pipet and then the absorbance is measured by the interval of 5 minutes at 412 nm.

[3] = rats, mean ± S.D. of 10 per group; AAP 700 mg/kg into the abdominal cavity, seaweed protein orally for two weeks
Experimental: Animals for the experiment are male rats (body weight of 100±10 g), as Sparague Dawley of four-week-old, obtained from Hyochang science. 10 rats are divided into three groups, respectively (control group, AAP sole administration group and AAP+seaweed protein administration group), bred in row breeding cages for 7 days as a domestication preparation breeding. At this time, the temperature (22±1° C.), humidity (50±10%) and brightness (12 hours, 08˜18:00) of a breeding room are strictly controlled. After performing the domestication preparation breeding, general feed and water are freely supplied and then a saline solution (control group and AAP sole administration group) and the seaweed protein are orally administrated for two weeks. 700 mg/kg of AAP melted by DMSO is administrated into the abdominal cavity and after 24 hours, heads of rats are cut and then a blood-gathering process is performed. […] And the liver is extracted and washed by the saline solution and thereafter the weight thereof is measured and a part thereof is fixed into the bouin solution (picric acid:formalin:glacial acid=15:5:1). […]
To examine the influence on the liver tissue, liver weight and the change of body weight of the seaweed protein separated and purified at the example 1, the liver tissue of a rat is extracted and its weight is measured.

CC(=O)Nc1ccc(O)cc1 [AAP, Acetaminophen]
Proliferation of the HepG2 liver cell (HepG2 liver cell): inhibited according to increase of the AAP concentration and the culture time | Colour/appearance of the liver (degree of liver injury, FIG. 2) (liver tissue of a rat): the liver tissue represents the bright brown | Inside of the liver tissue by optical microscopy, H&E dyeing (FIG. 3) (liver tissue of a rat): plural nucleus decomposition positions are observed about the central vein | Activity of caspase-3 in the liver tissue (caspase-3): 143.38±10.25% | DNA fragmentation in the liver tissue (FIG. 6(B)) [1]: a certain DNA fraction is observed | GPT in serum (GOT and GPT in the serum; control group 28.83±7.9): 44.83±11.7 karmen | GOT in serum (GOT and GPT in the serum; control group 158.97±13.4): 187.95±20.7 karmen | GSH content in the liver tissue [2]: 85.39±4.81% | Final body weight [3]: 299 ± 14.92 g | Weight of liver [3]: 10.86 ± 0.9 g
